Some test systems named below: SF-268 CNS; HL-60(TB) leukemia; SF-295 CNS; OVCAR-3 ovarian; NCI-H23 lung; HCC-2998 colon; SW-620 colon; LOX IMVI melanoma; UACC-62 melanoma; SK-MEL-28 melanoma.
What all share (assay): growth of human tumour cells (NCI), 48 h

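These data come from cells grown in 96-well plates and exposed to compound for 48 hours at five concentrations. The concentration for 50% growth inhibition is given as GI50. TGI denotes the concentration required for complete inhibition of growth.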

For `COC(=O)c1cc2c(nc1C)-c1ccccc1OS2(=O)=O`, the TGI with SF-268 CNS, in the assay on HL-60(TB) leukemia, with SF-295 CNS, in the assay on OVCAR-3 ovarian, in the assay with NCI-H23 lung and in the assay on HCC-2998 colon was greater than 100 µM in each case. For the same compound, the TGI with SW-620 colon, with LOX IMVI melanoma and in the assay on UACC-62 melanoma was greater than 100 µM each time.
In the case of `CCN(CC)CC(O)c1cc(-c2ccc(Cl)cc2)nc2cc(Cl)ccc12` (stereo not given), the GI50 in the assay with SF-268 CNS is 2.69 µM; with HL-60(TB) leukemia it was 2.02 µM; with SF-295 CNS it was 1.81 µM; in the assay on OVCAR-3 ovarian it was 1.92 µM; with NCI-H23 lung, 1.79 µM; in the assay with SK-MEL-28 melanoma, 1.76 µM. Further, the GI50 with HCC-2998 colon was 1.67 µM; in the assay on SW-620 colon it was 1.73 µM; with LOX IMVI melanoma it was 1.24 µM; in the assay on UACC-62 melanoma it was 1.62 µM. Further, the TGI came to 8.06 µM in the assay with SF-268 CNS; 3.74 µM in the assay on HL-60(TB) leukemia; 3.37 µM with SF-295 CNS; 4.05 µM in the assay on OVCAR-3 ovarian; 4.49 µM with NCI-H23 lung; 3.21 µM in the assay with SK-MEL-28 melanoma. The TGI with HCC-2998 colon was 3.1 µM; in the assay on SW-620 colon, 3.33 µM; in the assay with LOX IMVI melanoma, 2.51 µM; in the assay on UACC-62 melanoma, 3.1 µM.
On to `CSCC(COC(C)=O)(CSC)c1ccncc1`, for which the TGI with SF-268 CNS, with HL-60(TB) leukemia, with SF-295 CNS, in the assay with OVCAR-3 ovarian, with NCI-H23 lung and with SK-MEL-28 melanoma was greater than 100 µM throughout. Moreover, the TGI in the assay on HCC-2998 colon, with SW-620 colon, with LOX IMVI melanoma and in the assay on UACC-62 melanoma was greater than 100 µM in each case.
Consider `C=CCn1c(=O)c(C(=O)NC(=O)OCC)cn(C2CCCCC2)c1=O`, for which the TGI in the assay on HL-60(TB) leukemia, in the assay on SF-295 CNS, with OVCAR-3 ovarian, with NCI-H23 lung, in the assay on SK-MEL-28 melanoma and in the assay with HCC-2998 colon was greater than 100 µM in each case. Besides, the TGI in the assay with SW-620 colon, with LOX IMVI melanoma and in the assay with UACC-62 melanoma was greater than 100 µM throughout.
Turning to `CCC1OC(=O)CC(O)C(C)C(OC2OC(C)CC(N(C)C)C2O)C(CC=O)CC(C)C(=O)/C=C/C2(C)OC2C1C` (stereo not given), the TGI turned out to be 76.3 µM in the assay with SF-268 CNS; 32.4 µM in the assay on HL-60(TB) leukemia; 77.1 µM in the assay with SF-295 CNS; 59.1 µM with OVCAR-3 ovarian; 52.3 µM in the assay with NCI-H23 lung; 42.3 µM in the assay on SK-MEL-28 melanoma. Further, the TGI with HCC-2998 colon was greater than 100 µM; in the assay on SW-620 colon it was 34.8 µM; in the assay on LOX IMVI melanoma it was 48 µM; in the assay on UACC-62 melanoma, 28.9 µM.
Turning to `COc1ccc2c(c1)CC1N(C)CCC13CCCCC23` (stereo not given), the TGI in the assay with SF-268 CNS, in the assay with HL-60(TB) leukemia, with SF-295 CNS, in the assay on OVCAR-3 ovarian, in the assay with NCI-H23 lung and in the assay on SK-MEL-28 melanoma was greater than 100 µM each time. Moreover, the TGI in the assay with HCC-2998 colon, in the assay with LOX IMVI melanoma and with UACC-62 melanoma was greater than 100 µM in each case.
Turning to `C/C(CC(=O)Nc1cccc(C)c1C)=N\NC(N)=S`, the TGI in the assay with SF-268 CNS, in the assay with HL-60(TB) leukemia, with SF-295 CNS, with OVCAR-3 ovarian, in the assay on NCI-H23 lung and in the assay on SK-MEL-28 melanoma was greater than 100 µM each time. Also, the TGI in the assay on HCC-2998 colon, in the assay with LOX IMVI melanoma and in the assay with UACC-62 melanoma was greater than 100 µM each time.
On to `C1=CC(=NN=P(c2ccccc2)(c2ccccc2)c2ccccc2)C=C1`, for which the TGI in the assay on SF-268 CNS, with HL-60(TB) leukemia, in the assay on OVCAR-3 ovarian, in the assay with NCI-H23 lung, in the assay on SK-MEL-28 melanoma and in the assay with HCC-2998 colon was greater than 100 µM each time. The TGI with SW-620 colon, in the assay with LOX IMVI melanoma and in the assay with UACC-62 melanoma was greater than 100 µM in each case.
For `CCOC(=O)Nc1cc(-c2ccc(C)c(NS(C)(=O)=O)c2)nn2c(C)nnc12`, the GI50 was 4.13 µM with SF-268 CNS; 0.334 µM in the assay with HL-60(TB) leukemia; 1.85 µM in the assay on SF-295 CNS; 1.36 µM in the assay on OVCAR-3 ovarian; 1.93 µM in the assay on NCI-H23 lung; 2.69 µM in the assay with SK-MEL-28 melanoma. Further, the results for the GI50 in the assay on HCC-2998 colon, in the assay on SW-620 colon and in the assay with UACC-62 melanoma were 1.59 µM, 2.42 µM and 0.445 µM, respectively. Besides, the TGI is greater than 100 µM in the assay on SF-268 CNS; 2.71 µM in the assay with HL-60(TB) leukemia; 56.3 µM with SF-295 CNS; 6.56 µM with OVCAR-3 ovarian; 9.16 µM in the assay on NCI-H23 lung; greater than 100 µM with SK-MEL-28 melanoma. Further, the TGI is 3.37 µM in the assay with HCC-2998 colon, 30.9 µM with SW-620 colon and 18.5 µM in the assay with UACC-62 melanoma.
Take `CCOC(=O)Cn1c(=O)[nH]c(=O)c2[nH]cnc21`: the TGI with SF-268 CNS, with HL-60(TB) leukemia, in the assay on OVCAR-3 ovarian, in the assay with NCI-H23 lung, with SK-MEL-28 melanoma and in the assay on HCC-2998 colon was greater than 100 µM each time. Moreover, the TGI with SW-620 colon, with LOX IMVI melanoma and in the assay on UACC-62 melanoma was greater than 100 µM in each case.
For `O=C1NC(Cc2ccccc2)C(=O)N2CCCC12` (stereo not given), the TGI in the assay with SF-268 CNS, in the assay on HL-60(TB) leukemia, with SF-295 CNS, with OVCAR-3 ovarian, with SK-MEL-28 melanoma and with HCC-2998 colon was greater than 100 µM throughout. The TGI with SW-620 colon, in the assay with LOX IMVI melanoma and with UACC-62 melanoma was greater than 100 µM in each case.
For the compound `O=C(CC1(O)C(=O)Nc2ccc([N+](=O)[O-])cc21)c1ccc(Br)cc1` (stereo not given), the TGI with SF-268 CNS was greater than 100 µM; in the assay with HL-60(TB) leukemia, 45.7 µM; with SF-295 CNS, greater than 100 µM; in the assay on OVCAR-3 ovarian it was greater than 100 µM; with NCI-H23 lung, greater than 100 µM; in the assay with SK-MEL-28 melanoma it was greater than 100 µM. The TGI in the assay with HCC-2998 colon, with LOX IMVI melanoma and in the assay with UACC-62 melanoma was greater than 100 µM throughout.

Source of the values: PubChem BioAssay (NCI).
